According to article PMC8347595, “N-Skatyltryptamines—Dual 5-HT6R/D2R Ligands with Antipsychotic and Procognitive Potential” (Molecules, 2021):
Read-outs that look alike come from different tables or passages of the source.

Legend:
Human Serotonin 5-HT6R [1] = molecular target: T1, Human Serotonin 5-HT6R (Homo sapiens, UniProt P50406); experiment: 5-HT6R functional assay, antagonistic mode (cAMP induced by 5-CT, 1321N1 cells); format: cell-based; conditions: antagonistic mode, 5-CT 1000 nM; read-out: 5-HT6 Kb
T1 construct: host or cells: 1321N1 (frozen recombinant cells)
Procedure: (§1) The properties of compounds to inhibit cAMP production induced by a 5-HT6R agonist 5-CT (1000 nM) was evaluated. Compounds were tested in triplicate at eight concentrations (10^−11–10^−4 M). The level of cAMP was measured using frozen recombinant 1321N1 cells expressing the Human Serotonin 5-HT6R (PerkinElmer). Total cAMP was measured using the LANCE cAMP Detection Kit (PerkinElmer), according to the manufacturer’s instructions. For quantification of cAMP levels, 2000 cells/well ([…]) were incubated with a mixture of compounds ([…]) for 30 min at room temperature in a 384-well white opaque microtiter plate. After incubation, the reaction was stopped and cells were lysed by the addition of […] of working solution ([…] ULight-anti-cAMP) for 1 h at room temperature. Time-resolved fluorescence resonance energy transfer (TR-FRET) was detected by an Infinite M1000 Pro (Tecan) using instrument settings from the LANCE cAMP Detection Kit manual. […] The agonistic properties of compounds were determined with an analogous procedure, but without stimulation with 5-CT [10, 36].

5-HT2AR [2] = molecular target: T2, 5-HT2AR (Homo sapiens, UniProt P28223); experiment: 5-HT2AR function (no method given)
5-HT2AR [3] = molecular target: T2, 5-HT2AR; experiment: Radioligand binding assay, [3H]-ketanserin displacement; design: host or cells: CHO-K1; membrane preparation
5-HT6R = 5-HT6R (Homo sapiens, UniProt P50406); experiment: Radioligand binding assay, [3H]-LSD displacement
5-HT7R = 5-HT7R (Homo sapiens, UniProt P34969); experiment: Radioligand binding assay, [3H]-5-CT displacement
5-HT1AR = molecular target: T3, 5-HT1AR (Homo sapiens, UniProt P08908); experiment: Radioligand binding assay, [3H]-8-OH-DPAT displacement; conditions: pKi 5-HT1A, Table 1
T3 sequence (P08908 1-422): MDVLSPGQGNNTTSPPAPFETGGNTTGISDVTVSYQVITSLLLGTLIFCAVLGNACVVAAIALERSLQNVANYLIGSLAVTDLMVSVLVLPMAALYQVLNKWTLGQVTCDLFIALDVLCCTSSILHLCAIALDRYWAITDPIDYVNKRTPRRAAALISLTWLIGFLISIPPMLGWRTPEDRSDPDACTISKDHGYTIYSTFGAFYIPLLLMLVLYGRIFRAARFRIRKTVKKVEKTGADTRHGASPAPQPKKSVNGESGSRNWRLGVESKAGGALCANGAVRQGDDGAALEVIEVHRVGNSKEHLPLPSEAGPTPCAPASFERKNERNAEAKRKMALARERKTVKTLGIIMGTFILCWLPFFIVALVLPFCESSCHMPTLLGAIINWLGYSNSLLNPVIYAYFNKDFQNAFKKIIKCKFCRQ

D2R [4] = molecular target: T4, D2R (Homo sapiens, UniProt P14416); experiment: Radioligand binding assay, [3H]-raclopride displacement
Human Serotonin 5-HT6R [5] = molecular target: T1, Human Serotonin 5-HT6R; experiment: 5-HT6R functional assay, agonistic mode (cAMP, 1321N1 cells); format: cell-based; conditions: agonistic mode; read-out: 5-HT6 EC50
Procedure: as §1

[6] = Metabolic stability, incubation with mouse liver microsomes; format: in vitro ADME; conditions: MLMs, 50 µM, 2 h
Procedure: The murine liver microsomes (MLMs) were purchased from Sigma-Aldrich (St. Louis, MO, USA). To determine metabolic pathways, the tested compounds (50 µM) were incubated with 100 mM Tris-HCl buffer at 37 °C with MLMs (1 mg/mL) and NADPH Regeneration System for 2 h. Reactions were quenched with cold, pure methanol and mixtures were centrifuged 14,000 g for 15 min. The supernatants were analyzed using LCMS. The additional MS ion fragmentation of the product and the substrate were performed to determine the most probable structure of the metabolite.

CYP3A4 = molecular target: T5, CYP3A4 (Homo sapiens, UniProt P08684); experiment: CYP3A4 P450-Glo luminescent assay; format: in vitro ADME; conditions: compared to ketoconazole; 0.01 to 25 µM
T5 construct: purchased Promega (Madison, WI, USA)
Procedure: The experiments were provided using commercially available luminescent CYP3A4 P450-Glo™ and CYP2D6 P450-Glo™ tests purchased from Promega (Madison, WI, USA). The enzymatic reactions were conducted in polystyrene, flat-bottom Nunc™ MicroWell™ 96-well microplates (Thermo Scientific, Waltham, MA, USA). The assays were carried out according to the procedures provided by the manufacturer, as described previously. Compounds were tested in triplicate at the final concentrations in a range from 0.01 to 25 µM for both isoforms of CYP450. The references of CYP3A4 and CYP2D6 inhibitors (ketoconazole and quinidine, respectively) were tested in a range from 0.001 to 10 µM. Tested compounds were incubated in 100 mM Tris-HCl buffer separately with CYP3A4 and CYP2D6 membranes and the NADPH Regeneration System for 30 min at room temperature in triplicate. The bioluminescent signal was measured after the addition of the Luciferin Detection Reagent by using a microplate reader EnSpire PerkinElmer (Waltham, MA, USA). Both reagents (NADPH Regeneration System and Luciferin Detection Reagent) were purchased from Promega (Madison, WI, USA).

HepG2 cell line = experiment: Hepatotoxicity assay, HepG2 viability; format: cell-based; conditions: 1 μM, 72 h
Procedure: To estimate the hepatotoxicity of compounds, the hepatoma HepG2 (ATCC® HB-8065TM) cell line was used according to previously described protocols. The CellTiter 96® AQueous Non-Radioactive Cell Proliferation Assay was obtained from Promega (Madison, WI, USA). The compounds were tested in quadruplicate at four concentrations (1–100 µM) for 72 h.

[7] = PAMPA
[8] = Metabolic stability, incubation with mouse liver microsomes; format: in vitro ADME; conditions: MLMs, prolonged incubation
in vitro = conditions: PAMPA, pH 7.4
D2R [9] = molecular target: T4, D2R; experiment: D2R functional assay, antagonist mode (cAMP, HEK293 cells); format: cell-based; design: expressed in transfected cells
Procedure: The supernatant was aspirated, and the cell pellet was resuspended in stimulation buffer (1 × HBSS, 5 mM HEPES, 0.5 mM IBMX, 0.1% BSA).
The functional properties of compounds were evaluated using the LANCE Ultra cAMP Detection Kit (PerkinElmer). D2 receptors in HEK293 cells are coupled to Gi subtype and decreased cAMP production. […] Each compound was tested in triplicate at eight concentrations (10^−11–10^−4 M).
For quantification of cAMP levels, cells (5 µL) were incubated with 5 µL mixture of compounds (tested ligand and forskolin with 100 nM quinpirole for antagonist binding mode) for 30 min at room temperature in 384-well white opaque microtiter plate (PerkinElmer). After incubation, the reaction was stopped and cells were lysed by the addition of 10 µL working solution (5 µL Eu-cAMP and 5 µL ULight-anti-cAMP). The assay plate was incubated for 1 h at room temperature. Time-resolved fluorescence resonance energy transfer (TR-FRET) signal was detected by an Infinite M1000 Pro (Tecan) using instrument settings from the LANCE Ultra cAMP Detection Kit manual.

5-HT6 [10] = system: 5-HT6; design: method as in Dupuis et al. (2008) [31]; conditions: Figure 8; ref Dupuis et al. (2008) [31]; cited from earlier work
D2 = molecular target: D2; design: method as in Dupuis et al. (2008) [31]; conditions: Figure 8; ref Dupuis et al. (2008) [31]; cited from earlier work
5-HT6 [11] = conditions: read-out: Ki 5-HT6; Figure 8; ref Dupuis et al. (2008) [31]; cited from earlier work

T1 sequence (P50406 whole entry): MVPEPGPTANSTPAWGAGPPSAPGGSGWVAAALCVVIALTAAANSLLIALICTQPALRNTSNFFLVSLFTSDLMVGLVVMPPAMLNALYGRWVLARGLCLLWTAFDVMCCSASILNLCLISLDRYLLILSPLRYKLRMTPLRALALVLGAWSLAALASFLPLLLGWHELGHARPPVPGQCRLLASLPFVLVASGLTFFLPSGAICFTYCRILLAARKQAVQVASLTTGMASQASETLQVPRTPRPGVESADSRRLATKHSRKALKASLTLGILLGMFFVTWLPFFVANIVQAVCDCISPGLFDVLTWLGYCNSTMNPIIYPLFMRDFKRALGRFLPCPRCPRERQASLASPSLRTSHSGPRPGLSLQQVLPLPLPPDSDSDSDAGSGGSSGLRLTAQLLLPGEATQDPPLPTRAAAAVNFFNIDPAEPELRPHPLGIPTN
T4 sequence (P14416 whole entry): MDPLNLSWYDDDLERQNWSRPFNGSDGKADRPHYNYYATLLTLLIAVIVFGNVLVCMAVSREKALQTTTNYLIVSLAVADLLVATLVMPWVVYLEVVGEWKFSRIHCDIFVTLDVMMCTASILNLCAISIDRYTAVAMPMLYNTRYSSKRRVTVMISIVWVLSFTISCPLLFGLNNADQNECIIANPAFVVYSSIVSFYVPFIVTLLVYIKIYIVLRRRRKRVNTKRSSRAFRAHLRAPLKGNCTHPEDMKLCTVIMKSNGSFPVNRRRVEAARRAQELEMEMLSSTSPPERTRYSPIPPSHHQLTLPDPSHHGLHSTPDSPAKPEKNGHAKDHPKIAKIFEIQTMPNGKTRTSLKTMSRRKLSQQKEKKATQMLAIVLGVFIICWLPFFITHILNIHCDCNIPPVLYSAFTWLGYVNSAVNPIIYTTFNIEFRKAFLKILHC
T2 sequence (P28223 whole entry): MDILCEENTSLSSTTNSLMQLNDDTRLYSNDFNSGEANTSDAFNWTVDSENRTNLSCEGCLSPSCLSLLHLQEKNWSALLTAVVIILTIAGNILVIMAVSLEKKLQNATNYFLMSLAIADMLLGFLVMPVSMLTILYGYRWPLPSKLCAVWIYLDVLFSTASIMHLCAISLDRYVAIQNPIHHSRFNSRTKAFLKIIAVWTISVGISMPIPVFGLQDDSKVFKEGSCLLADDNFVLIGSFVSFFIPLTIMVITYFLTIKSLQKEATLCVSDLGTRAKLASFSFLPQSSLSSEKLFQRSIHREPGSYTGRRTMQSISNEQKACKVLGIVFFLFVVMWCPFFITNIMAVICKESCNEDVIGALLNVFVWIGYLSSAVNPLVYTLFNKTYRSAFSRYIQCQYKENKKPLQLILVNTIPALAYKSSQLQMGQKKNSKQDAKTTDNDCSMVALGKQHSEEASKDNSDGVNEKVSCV
Chain of 5-HT6R (P50406 whole entry): as the sequence (P50406 whole entry) above
Chain of 5-HT7R (P34969 1-432): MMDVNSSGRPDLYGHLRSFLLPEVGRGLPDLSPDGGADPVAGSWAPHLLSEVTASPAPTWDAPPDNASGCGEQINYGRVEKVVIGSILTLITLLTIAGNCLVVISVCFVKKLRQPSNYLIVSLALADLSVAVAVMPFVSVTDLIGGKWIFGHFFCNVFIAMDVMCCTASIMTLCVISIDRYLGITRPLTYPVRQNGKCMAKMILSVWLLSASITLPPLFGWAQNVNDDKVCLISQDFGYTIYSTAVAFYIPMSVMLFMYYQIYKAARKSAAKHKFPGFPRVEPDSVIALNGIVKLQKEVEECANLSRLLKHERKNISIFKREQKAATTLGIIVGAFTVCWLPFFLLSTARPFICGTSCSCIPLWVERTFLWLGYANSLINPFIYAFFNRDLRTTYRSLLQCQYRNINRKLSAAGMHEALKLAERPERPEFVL
T5 sequence (P08684 whole entry): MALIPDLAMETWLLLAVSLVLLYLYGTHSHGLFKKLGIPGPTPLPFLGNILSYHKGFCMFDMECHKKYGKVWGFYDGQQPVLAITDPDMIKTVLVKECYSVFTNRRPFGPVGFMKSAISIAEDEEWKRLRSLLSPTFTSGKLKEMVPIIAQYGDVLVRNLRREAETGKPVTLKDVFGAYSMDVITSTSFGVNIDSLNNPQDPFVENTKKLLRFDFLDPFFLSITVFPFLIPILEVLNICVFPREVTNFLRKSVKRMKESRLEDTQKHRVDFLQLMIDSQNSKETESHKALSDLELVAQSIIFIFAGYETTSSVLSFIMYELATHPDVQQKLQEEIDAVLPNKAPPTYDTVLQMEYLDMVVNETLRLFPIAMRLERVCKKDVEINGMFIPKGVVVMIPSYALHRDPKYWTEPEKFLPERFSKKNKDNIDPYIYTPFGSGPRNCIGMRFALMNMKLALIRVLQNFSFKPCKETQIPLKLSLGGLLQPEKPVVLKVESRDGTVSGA

c1ccc2c(CCNCc3c[nH]c4ccccc34)c[nH]c2c1 [Compound 1, [2-(1H-indol-3-yl)ethyl][(1H-indol-3-yl)methyl]amine]
Kb (Human Serotonin 5-HT6R [1]): 151 nM | 5-HT2AR function in words (5-HT2AR [2]): 5-HT2AR partial agonist | Ki (5-HT2AR [3]; Ki 5-HT2A): 20 nM | Ki (5-HT2AR [3]; pKi 5-HT2A, Table 1): 20 nM | Ki (5-HT6R; Ki 5-HT6, Figure 8): 172 nM | Ki (5-HT6R; pKi 5-HT6, Table 1): 174 nM | Ki (5-HT7R): 28800 nM | Ki (5-HT1AR): 1510 nM | pKi D2 (D2R [4]; Table 1): 7.22

Clc1ccc2c(CCNCc3c[nH]c4ccccc34)c[nH]c2c1 [Compound 5]
EC50 (Human Serotonin 5-HT6R [5]): 157 nM | Kb (Human Serotonin 5-HT6R [1]): 136 nM | Metabolic Pathway, metabolite M1 [6]: hydroxylation | effect on CYP3A4 activity (CYP3A4): inducer of CYP3A4 | HepG2 cell viability (HepG2 cell line): ~ 80 % of the control | effect on HepG2 proliferation in words (HepG2 cell line): slight antiproliferative effect | permeability in words [7]: medium permeability coefficients | number of hydroxylated metabolites [8]: only one hydroxylated metabolite | Papp at 5 h, 200 µM (in vitro): 7.09 ± 1.24 ×10⁻⁶ cm/s | Kb (D2R [9]; antagonistic mode, 100 nM quinpirole, read-out: D2 Kb): 104 nM | EC50 (D2R [9]; read-out: EC50 (D2 receptor, antagonistic function)): 104 nM | Ki (5-HT2AR [3]; Table 1, read-out: pKi 5-HT2A (converted)): 1170 nM | Ki (5-HT7R): 15800 nM | Ki (5-HT1AR): 3310 nM | Ki (D2R [4]; Ki D2, Figure 8): 155 nM | Ki (D2R [4]; pKi D2, Table 1): 155 nM

O=C1Cc2cc(CCN3CCN(c4nsc5ccccc45)CC3)c(Cl)cc2N1 [Ziprasidone]
Kb (5-HT6 [10]): 57.5 nM | Ki (D2): 0.8 nM | Ki (5-HT6 [11]): 20 nM
